The results in this text go back to patent US11198713B2, “Agents modulating beta-catenin functions and methods thereof” (FOG PHARMACEUTICALS, INC., priority 2017, dated 2021).

The term pEC50 denotes the negative decadic logarithm of the EC50, by convention in mol/L.

pEC50: −log10 of the molar value.

For this assay, the target named is T1, full-length beta-catenin (Axin site) (Homo sapiens, UniProt P35222).
T1 construct: 15 nM full-length beta-catenin, 20 nM FITC labeled peptide in buffer
T1 sequence (P35222 1-781): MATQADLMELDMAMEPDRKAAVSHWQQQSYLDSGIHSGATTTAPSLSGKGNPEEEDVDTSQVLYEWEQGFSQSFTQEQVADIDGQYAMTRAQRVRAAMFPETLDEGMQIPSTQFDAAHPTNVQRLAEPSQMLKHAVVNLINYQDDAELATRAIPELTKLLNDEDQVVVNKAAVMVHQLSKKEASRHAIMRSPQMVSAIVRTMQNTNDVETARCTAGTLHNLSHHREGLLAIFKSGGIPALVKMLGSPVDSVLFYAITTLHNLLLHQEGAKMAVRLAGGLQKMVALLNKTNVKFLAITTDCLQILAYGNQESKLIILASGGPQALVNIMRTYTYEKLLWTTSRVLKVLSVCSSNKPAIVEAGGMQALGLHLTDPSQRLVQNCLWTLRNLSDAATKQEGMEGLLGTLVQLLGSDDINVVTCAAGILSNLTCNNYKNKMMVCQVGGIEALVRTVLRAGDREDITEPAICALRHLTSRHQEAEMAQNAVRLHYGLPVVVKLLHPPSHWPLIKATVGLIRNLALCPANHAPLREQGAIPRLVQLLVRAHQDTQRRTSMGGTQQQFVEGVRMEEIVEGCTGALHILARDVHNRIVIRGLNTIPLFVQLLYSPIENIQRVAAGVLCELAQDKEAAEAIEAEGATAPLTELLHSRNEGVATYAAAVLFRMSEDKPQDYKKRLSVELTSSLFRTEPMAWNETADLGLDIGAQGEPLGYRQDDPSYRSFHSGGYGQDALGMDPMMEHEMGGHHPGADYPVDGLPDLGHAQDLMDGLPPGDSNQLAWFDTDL
Nature of the assay: Competition fluorescence polarization assay (Axin site probe). It counts as binding. Particulars: competition fluorescence polarization, Table 2; read-out: in vitro FP EC50. In outline: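 Competition FP: 15 nM full-length β-catenin pre-incubated 5 min with 20 nM FITC-labelled stapled Axin-site peptide, then titrated peptide added (3-fold series from 5 μM) for 15 min in the dark. Buffer 50 mM Tris pH 8.0, 250 mM NaCl, 2% glycerol, 0.5 mM EDTA; duplicate reads.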
Background: Fluorescence polarisation rises when a labelled molecule tumbles more slowly, as on binding a larger partner.

Turning to `CC[C@H](C)[C@@H]1NC(=O)C2(NC(=O)[C@H](CCC(N)=O)NC(=O)[C@@H]3CCCN3C(C)=O)CN(C2)C(=O)OCC=CCCC[C@@](C)(C(=O)N[C@@H](Cc2c[nH]cn2)C(=O)N[C@H](C(=O)N[C@@H](CCCNC(=N)N)C(=O)N[C@@H](CCCNC(=N)N)C(=O)N[C@H](C(=O)N[C@@H](Cc2c[nH]c3ccccc23)C(=O)N[C@@H](CCCNC(=N)N)C(N)=O)C(C)C)C(C)C)NC(=O)[C@H](CC(=O)O)NC(=O)[C@H](CC(C)C)NC1=O` (single isomer, unassigned) [FP0724c, Ac-P-Q-MA-I-L-D-S5-H-V-R-R-V-W-R-NH2], the negative-log EC50 (pEC50) is 5.30 to 6.30.
To `CC[C@H](C)[C@@H]1NC(=O)C2(NC(=O)[C@H](CCC(N)=O)NC(=O)[C@@H]3CCCN3C(C)=O)CN(CC=CCCCC[C@](C)(C(=O)N[C@@H](Cc3c[nH]cn3)C(=O)N[C@H](C(=O)N[C@@H](CCCNC(=N)N)C(=O)N[C@@H](CCCNC(=N)N)C(=O)N[C@H](C(=O)N[C@@H](Cc3c[nH]c4ccccc34)C(=O)N[C@@H](CCCNC(=N)N)C(N)=O)C(C)C)C(C)C)NC(=O)[C@H](CC(=O)O)NC(=O)[C@H](CC(C)C)NC1=O)C2` (single isomer, unassigned) [FP0725a, Ac-P-Q-MA-I-L-D-R6-H-V-R-R-V-W-R-NH2] belongs 5.30 to 6.30; to `CC[C@H](C)[C@@H]1NC(=O)C2(NC(=O)[C@H](CCC(N)=O)NC(=O)[C@@H]3CCCN3C(C)=O)CN(C2)C(=O)OCC=CCCCCC[C@](C)(C(=O)N[C@@H](Cc2c[nH]cn2)C(=O)N[C@H](C(=O)N[C@@H](CCCNC(=N)N)C(=O)N[C@@H](CCCNC(=N)N)C(=O)N[C@H](C(=O)N[C@@H](Cc2c[nH]c3ccccc23)C(=O)N[C@@H](CCCNC(=N)N)C(N)=O)C(C)C)C(C)C)NC(=O)[C@H](CC(=O)O)NC(=O)[C@H](CC(C)C)NC1=O` (single isomer, unassigned) [FP0727c, Ac-P-Q-MA-I-L-D-R7-H-V-R-R-V-W-R-NH2], 5.30 to 6.30; to `CC[C@H](C)[C@@H]1NC(=O)C2(NC(=O)[C@H](CCC(N)=O)NC(=O)[C@@H]3CCCN3C(C)=O)CN(C2)C(=O)OCC=CCCCCC[C@@](C)(C(=O)N[C@@H](Cc2c[nH]cn2)C(=O)N[C@H](C(=O)N[C@@H](CCCNC(=N)N)C(=O)N[C@@H](CCCNC(=N)N)C(=O)N[C@H](C(=O)N[C@@H](Cc2c[nH]c3ccccc23)C(=O)N[C@@H](CCCNC(=N)N)C(N)=O)C(C)C)C(C)C)NC(=O)[C@H](CC(=O)O)NC(=O)[C@H](CC(C)C)NC1=O` (single isomer, unassigned) [FP0728c, Ac-P-Q-MA-I-L-D-S7-H-V-R-R-V-W-R-NH2], 5.30 to 6.30.
For `CC[C@H](C)[C@@H]1NC(=O)[C@](C)(NC(=O)[C@H](CCC(N)=O)NC(=O)[C@@H]2CCCN2C(C)=O)CCC=CCOC(=O)N2CC(C(=O)N[C@@H](Cc3c[nH]cn3)C(=O)N[C@H](C(=O)N[C@@H](CCCNC(=N)N)C(=O)N[C@@H](CCCNC(=N)N)C(=O)N[C@H](C(=O)N[C@@H](Cc3c[nH]c4ccccc34)C(=O)N[C@@H](CCCNC(=N)N)C(N)=O)C(C)C)C(C)C)(C2)NC(=O)[C@H](CC(=O)O)NC(=O)[C@H](CC(C)C)NC1=O` (single isomer, unassigned) [FP0731c, Ac-P-Q-R4-I-L-D-MA-H-V-R-R-V-W-R-NH2], the pEC50 is 5.30 to 6.30.
With `CC[C@H](C)[C@@H]1NC(=O)[C@](C)(NC(=O)[C@H](CCC(N)=O)NC(=O)[C@@H]2CCCN2C(C)=O)CCCC=CCOC(=O)N2CC(C(=O)N[C@@H](Cc3c[nH]cn3)C(=O)N[C@H](C(=O)N[C@@H](CCCNC(=N)N)C(=O)N[C@@H](CCCNC(=N)N)C(=O)N[C@H](C(=O)N[C@@H](Cc3c[nH]c4ccccc34)C(=O)N[C@@H](CCCNC(=N)N)C(N)=O)C(C)C)C(C)C)(C2)NC(=O)[C@H](CC(=O)O)NC(=O)[C@H](CC(C)C)NC1=O` (single isomer, unassigned) [FP0733c, Ac-P-Q-R5-I-L-D-MA-H-V-R-R-V-W-R-NH2], the pEC50 was 5.30 to 6.30.
To `CC[C@H](C)[C@@H]1NC(=O)[C@@](C)(NC(=O)[C@H](CCC(N)=O)NC(=O)[C@@H]2CCCN2C(C)=O)CCCC=CCN2CC(C(=O)N[C@@H](Cc3c[nH]cn3)C(=O)N[C@H](C(=O)N[C@@H](CCCNC(=N)N)C(=O)N[C@@H](CCCNC(=N)N)C(=O)N[C@H](C(=O)N[C@@H](Cc3c[nH]c4ccccc34)C(=O)N[C@@H](CCCNC(=N)N)C(N)=O)C(C)C)C(C)C)(C2)NC(=O)[C@H](CC(=O)O)NC(=O)[C@H](CC(C)C)NC1=O` (single isomer, unassigned) [FP0734a, Ac-P-Q-S5-I-L-D-MA-H-V-R-R-V-W-R-NH2] belongs less than 5.30.
The same measure for `CC[C@H](C)[C@@H]1NC(=O)[C@@](C)(NC(=O)[C@H](CCC(N)=O)NC(=O)[C@@H]2CCCN2C(C)=O)CCCC=CCOC(=O)N2CC(C(=O)N[C@@H](Cc3c[nH]cn3)C(=O)N[C@H](C(=O)N[C@@H](CCCNC(=N)N)C(=O)N[C@@H](CCCNC(=N)N)C(=O)N[C@H](C(=O)N[C@@H](Cc3c[nH]c4ccccc34)C(=O)N[C@@H](CCCNC(=N)N)C(N)=O)C(C)C)C(C)C)(C2)NC(=O)[C@H](CC(=O)O)NC(=O)[C@H](CC(C)C)NC1=O` (single isomer, unassigned) [FP0734c, Ac-P-Q-S5-I-L-D-MA-H-V-R-R-V-W-R-NH2]: less than 5.30; for `CC[C@H](C)[C@@H]1NC(=O)[C@](C)(NC(=O)[C@H](CCC(N)=O)NC(=O)[C@@H]2CCCN2C(C)=O)CCCCC=CCN2CC(C(=O)N[C@@H](Cc3c[nH]cn3)C(=O)N[C@H](C(=O)N[C@@H](CCCNC(=N)N)C(=O)N[C@@H](CCCNC(=N)N)C(=O)N[C@H](C(=O)N[C@@H](Cc3c[nH]c4ccccc34)C(=O)N[C@@H](CCCNC(=N)N)C(N)=O)C(C)C)C(C)C)(C2)NC(=O)[C@H](CC(=O)O)NC(=O)[C@H](CC(C)C)NC1=O` (single isomer, unassigned) [FP0735a, Ac-P-Q-R6-I-L-D-MA-H-V-R-R-V-W-R-NH2]: 5.30 to 6.30.
For `CC[C@H](C)[C@@H]1NC(=O)[C@](C)(NC(=O)[C@H](CCC(N)=O)NC(=O)[C@@H]2CCCN2C(C)=O)CCCCC=CCOC(=O)N2CC(C(=O)N[C@@H](Cc3c[nH]cn3)C(=O)N[C@H](C(=O)N[C@@H](CCCNC(=N)N)C(=O)N[C@@H](CCCNC(=N)N)C(=O)N[C@H](C(=O)N[C@@H](Cc3c[nH]c4ccccc34)C(=O)N[C@@H](CCCNC(=N)N)C(N)=O)C(C)C)C(C)C)(C2)NC(=O)[C@H](CC(=O)O)NC(=O)[C@H](CC(C)C)NC1=O` (single isomer, unassigned) [FP0735c, Ac-P-Q-R6-I-L-D-MA-H-V-R-R-V-W-R-NH2], the pEC50 is 5.30 to 6.30.
To `CC[C@H](C)[C@@H]1NC(=O)[C@@](C)(NC(=O)[C@H](CCC(N)=O)NC(=O)[C@@H]2CCCN2C(C)=O)CCCCC=CCN2CC(C(=O)N[C@@H](Cc3c[nH]cn3)C(=O)N[C@H](C(=O)N[C@@H](CCCNC(=N)N)C(=O)N[C@@H](CCCNC(=N)N)C(=O)N[C@H](C(=O)N[C@@H](Cc3c[nH]c4ccccc34)C(=O)N[C@@H](CCCNC(=N)N)C(N)=O)C(C)C)C(C)C)(C2)NC(=O)[C@H](CC(=O)O)NC(=O)[C@H](CC(C)C)NC1=O` (single isomer, unassigned) [FP0736a, Ac-P-Q-S6-I-L-D-MA-H-V-R-R-V-W-R-NH2] belongs 6.30 to 7.00.
Consider `CC[C@H](C)[C@@H]1NC(=O)[C@@](C)(NC(=O)[C@H](CCC(N)=O)NC(=O)[C@@H]2CCCN2C(C)=O)CCCCC=CCOC(=O)N2CC(C(=O)N[C@@H](Cc3c[nH]cn3)C(=O)N[C@H](C(=O)N[C@@H](CCCNC(=N)N)C(=O)N[C@@H](CCCNC(=N)N)C(=O)N[C@H](C(=O)N[C@@H](Cc3c[nH]c4ccccc34)C(=O)N[C@@H](CCCNC(=N)N)C(N)=O)C(C)C)C(C)C)(C2)NC(=O)[C@H](CC(=O)O)NC(=O)[C@H](CC(C)C)NC1=O` (single isomer, unassigned) [FP0736c, Ac-P-Q-S6-I-L-D-MA-H-V-R-R-V-W-R-NH2], for which the pEC50 is 5.30 to 6.30.
To `CC[C@H](C)[C@@H]1NC(=O)[C@@](C)(NC(=O)[C@H](CCC(N)=O)NC(=O)[C@@H]2CCCN2C(C)=O)CCCCCC=CCOC(=O)N2CC(C(=O)N[C@@H](Cc3c[nH]cn3)C(=O)N[C@H](C(=O)N[C@@H](CCCNC(=N)N)C(=O)N[C@@H](CCCNC(=N)N)C(=O)N[C@H](C(=O)N[C@@H](Cc3c[nH]c4ccccc34)C(=O)N[C@@H](CCCNC(=N)N)C(N)=O)C(C)C)C(C)C)(C2)NC(=O)[C@H](CC(=O)O)NC(=O)[C@H](CC(C)C)NC1=O` (single isomer, unassigned) [FP0738c, Ac-P-Q-S7-I-L-D-MA-H-V-R-R-V-W-R-NH2] belongs 5.30 to 6.30.
The same measure for `CC[C@H](C)[C@@H]1NC(=O)[C@@]2(NC(=O)[C@H](CCC(N)=O)NC(=O)[C@@H]3CCCN3C(C)=O)CCN(CC=CCCC[C@](C)(C(=O)N[C@@H](Cc3c[nH]cn3)C(=O)N[C@H](C(=O)N[C@@H](CCCNC(=N)N)C(=O)N[C@@H](CCCNC(=N)N)C(=O)N[C@H](C(=O)N[C@@H](Cc3c[nH]c4ccccc34)C(=O)N[C@@H](CCCNC(=N)N)C(N)=O)C(C)C)C(C)C)NC(=O)[C@H](CC(=O)O)NC(=O)[C@H](CC(C)C)NC1=O)C2` (single isomer, unassigned) [FP0743a, Ac-P-Q-MC-I-L-D-R5-H-V-R-R-V-W-R-NH2]: less than 5.30.
